From patent US8486962B2, “Antifungal agents” (F2G Ltd., priority 2005, dated 2013)
Values after ≈ are worked out from the molar mass of the structure shown.

Tests used:
[1] = system: Aspergillus flavus; test: MIC, YAG medium, Aspergillus flavus; type: cell-based; conditions: Aspergillus flavus; YAG medium; read-out: MIC A Flavus 01
How it was run: (§1)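 MICs in mg/L are lowest drug levels suppressing growth (OD 485 nm) relative to drug-free wells: Aspergillus in YAG at >70%, 24 hrs; Candida albicans in buffered RPMI at >80%, 24-48 hrs. Both incubated at 35° C across 50-0.05 mg/L doubling dilutions.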

[2] = system: Aspergillus fumigatus AF210; test: MIC, YAG medium, Aspergillus fumigatus AF210; type: cell-based; conditions: Aspergillus fumigatus, AF210; YAG medium; read-out: MIC A Fum. 210
How it was run: as §1

[3] = system: Aspergillus fumigatus AF293; test: MIC, YAG medium, Aspergillus fumigatus AF293; type: cell-based; conditions: Aspergillus fumigatus, AF293; YAG medium; read-out: MIC A Fum. 293
How it was run: as §1

[4] = system: Aspergillus terreus; test: MIC, YAG medium, Aspergillus terreus; type: cell-based; conditions: Aspergillus terreus; YAG medium; read-out: MIC A Terreus 4
How it was run: as §1

[5] = system: Aspergillus niger; test: MIC, YAG medium, Aspergillus niger; type: cell-based; conditions: Aspergillus niger; YAG medium; read-out: MIC A Niger 1
How it was run: as §1

[6] = system: A Terreus 49; test: MIC, YAG medium, A Terreus 49; type: cell-based, Aspergillus terreus; conditions: Aspergillus terreus; YAG medium; read-out: MIC A Terreus 49
How it was run: as §1

Row | MIC [1] [µg/mL] | MIC [2] [µg/mL] | MIC [3] [µg/mL] | MIC [4] [µg/mL] | MIC [5] [µg/mL] | MIC [6] [µg/mL] | Compound
1 | 0.2 (≈ 0.507 µM) | > 50 | > 50 | 0.2 (≈ 0.507 µM) | 0.05 (≈ 0.127 µM) | 0.1 (≈ 0.254 µM) | O=C(Nc1ccc(F)cc1F)C(=O)c1c(-c2cccc(F)c2)cc2ccccn12 [Example 244, N-(2,4-Difluoro-phenyl)-2-[2-(3-fluoro-phenyl)-indolizin-3-yl]-2-oxo-acetamide]
2 | > 50 | 12.5 (≈ 33 µM) | 12.5 (≈ 33 µM) | 6.25 (≈ 16.5 µM) | 0.4 (≈ 1.06 µM) | 6.25 (≈ 16.5 µM) | CCOC(=O)C(C)(C)NC(=O)C(=O)c1c(-c2ccccc2)cc2ccccn12 [Example 248, 2-Methyl-2-[2-oxo-2-(2-phenyl-indolizin-3-yl)-acetylamino]-propionic acid ethyl ester]
3 | > 50 | 1.6 (≈ 3.52 µM) | 0.8 (≈ 1.76 µM) | 1.6 (≈ 3.52 µM) | 6.25 (≈ 13.8 µM) | 1.6 (≈ 3.52 µM) | CCOC(=O)C(C)(Cc1ccccc1)NC(=O)C(=O)c1c(-c2ccccc2)cc2ccccn12 (stereo not drawn) [Example 249, 2-Methyl-2-[2-oxo-2-(2-phenyl-indolizin-3-yl)-acetylamino]-3-phenyl-propionic acid ethyl ester]
4 | 0.015 (≈ 0.0392 µM) | 0.062 (≈ 0.162 µM) | 0.008 (≈ 0.0209 µM) | 0.008 (≈ 0.0209 µM) | 0.004 (≈ 0.0105 µM) | 0.002 (≈ 0.00523 µM) | CC(C)c1ccc(NC(=O)C(=O)c2c(-c3ccccc3)cc3ccccn23)cc1 [Example 252, N-(4-Isopropyl-phenyl)-2-oxo-2-(2-phenyl-indolizin-3-yl)-acetamide]

Continued, molecule first:

Row | Compound | MIC [1] [µg/mL] | MIC [2] [µg/mL] | MIC [3] [µg/mL] | MIC [4] [µg/mL] | MIC [5] [µg/mL] | MIC [6] [µg/mL]
5 | COc1ccc(NC(=O)C(=O)c2c(-c3cccc(Cl)c3)cc3ccccn23)cc1 [Example 235, 2-[2-(3-Chloro-phenyl)-indolizin-3-yl]-N-(4-methoxy-phenyl)-2-oxo-acetamide] | 0.031 (≈ 0.0766 µM) | 0.5 (≈ 1.24 µM) | 0.5 (≈ 1.24 µM) | 0.015 (≈ 0.0371 µM) | 0.12 (≈ 0.296 µM) | 0.008 (≈ 0.0198 µM)
6 | COc1ccc(NC(=O)C(=O)c2c(-c3ccc(C)cc3)cc3ccccn23)cc1 [Example 238, N-(4-Methoxy-phenyl)-2-oxo-2-(2-p-tolyl-indolizin-3-yl)-acetamide] | 0.015 (≈ 0.039 µM) | 0.25 (≈ 0.65 µM) | 0.5 (≈ 1.3 µM) | 0.015 (≈ 0.039 µM) | 0.015 (≈ 0.039 µM) | 0.008 (≈ 0.0208 µM)
7 | N#Cc1cccc(-c2cc3ccccn3c2C(=O)C(=O)Nc2ccc(F)cc2F)c1 [Example 245, 2-[2-(3-Cyano-phenyl)-indolizin-3-yl]-N-(2,4-difluoro-phenyl)-2-oxo-acetamide] | 0.8 (≈ 1.99 µM) | 6.25 (≈ 15.6 µM) | 6.25 (≈ 15.6 µM) | 0.4 (≈ 0.997 µM) | 0.4 (≈ 0.997 µM) | 0.8 (≈ 1.99 µM)
8 | Cc1ccc(Cl)cc1NC(=O)C(=O)c1c(-c2ccccc2)cc2ccccn12 [Example 246, N-(5-Chloro-2-methyl-phenyl)-2-oxo-2-(2-phenyl-indolizin-3-yl)-acetamide] | 0.031 (≈ 0.0797 µM) | 0.25 (≈ 0.643 µM) | 0.12 (≈ 0.309 µM) | 0.008 (≈ 0.0206 µM) | 0.062 (≈ 0.159 µM) | 0.004 (≈ 0.0103 µM)
9 | C=CCOc1cc(F)ccc1NC(=O)C(=O)c1c(-c2ccccc2)cc2ccccn12 [Example 247, N-(2-Allyloxy-4-fluoro-phenyl)-2-oxo-2-(2-phenyl-indolizin-3-yl)-acetamide] | 1.6 (≈ 3.86 µM) | 3.1 (≈ 7.48 µM) | 3.1 (≈ 7.48 µM) | 0.4 (≈ 0.965 µM) | 3.1 (≈ 7.48 µM) | 0.2 (≈ 0.483 µM)
10 | O=C(Nc1ccc(N2CCOCC2)cc1)C(=O)c1c(-c2ccccc2)cc2ccccn12 [Example 251, N-(4-Morpholin-4-yl-phenyl)-2-oxo-2-(2-phenyl-indolizin-3-yl)-acetamide] | 0.062 (≈ 0.146 µM) | 0.12 (≈ 0.282 µM) | 0.12 (≈ 0.282 µM) | 0.031 (≈ 0.0729 µM) | 0.062 (≈ 0.146 µM) | 0.015 (≈ 0.0353 µM)
11 | CN(C)c1ccc(NC(=O)C(=O)c2c(-c3cccnc3)cc3ccccn23)cn1 [Example 253, N-(6-Dimethylamino-pyridin-3-yl)-2-oxo-2-(2-pyridin-3-yl-indolizin-3-yl)-acetamide] | 25 (≈ 64.9 µM) | > 50 | > 50 | 12.5 (≈ 32.4 µM) | > 50 | 12.5 (≈ 32.4 µM)
12 | C=CCc1c(F)ccc(NC(=O)C(=O)c2c(-c3ccccc3)cc3ccccn23)c1OC [Example 254, N-(3-Allyl-4-fluoro-2-methoxy-phenyl)-2-oxo-2-(2-phenyl-indolizin-3-yl)-acetamide] | 0.4 (≈ 0.934 µM) | 0.8 (≈ 1.87 µM) | 1.6 (≈ 3.73 µM) | 0.1 (≈ 0.233 µM) | 0.4 (≈ 0.934 µM) | 0.2 (≈ 0.467 µM)
